Reference: US8092845B2, “Anti-inflammatory extract and agent and method for the production thereof” (Otkrytoe Aktsionernoe Obschestvo Zavod Ekologicheskoy …, priority 2004, dated 2012)

Key:
[1] = system: nondescript mice; settings: both, mouse, in vivo
Procedure: Diclofenac was used for the comparison of the therapeutic activity of Boswellik. Studies were performed on both male and female nondescript mice after oral administration of the preparations.

[2] = system: formalin-induced arthritis in rabbits; test: formalin-induced arthritis in rabbits (hematology and joint histology)
Procedure: Experiments were carried out on 51 rabbits “Chinchilla” having a weight of 2800-3200 g. […] An arthritis model was caused by administration of 0.1 ml of a 2% formalin solution into the cavity of the knee joint—and a model of acute arthritis was obtained after twenty-four hours.
The investigated agent and diclofenac were administered according to the following regimen: for preventive purposes 4 days prior to simulation of the arthritis on time per day intragastrically via a probe and on the 4th day 4 hours prior to the administration of formalin.
Animals were euthanized under hexobarbital anesthesia after 3, 7 and 14 days after the induction of arthritis. Prior to beginning of the experiment and prior to euthanasia, blood was taken from the ear vein, and was used to determine hematologic parameters.
For a pathomorphological study, the joints were extracted together with the surrounding tissues and fixed in 10% neutral formalin.

[3] = system: peritonitis in mice; test: acute exudative inflammation (peritonitis) caused by intraperitoneal injection of acetic acid, mice; assay type: in vivo; settings: 8 mg/kg
Text: (§1) The evaluation of the anti-inflammatory activity for Boswellik has been carried out in a model of the acute inflammatory process—peritonitis—in rats and mice, caused by the intraperitoneal injection of acetic acid.

[4] = system: isolated human blood cells; test: in vitro synthesis of immunoglobulins by isolated human blood cells; assay type: cell-based
[5] = system: peritonitis in rats; test: acute exudative inflammation (peritonitis) caused by intraperitoneal injection of acetic acid, rats; assay type: in vivo; settings: 8 mg/kg
Text: as §1

[6] = diclofenac 8 mg/kg, present agent 250 mg/kg
[7] = diclofenac 8 mg/kg, present agent 250 mg/kg, all observation periods

O=C(O)Cc1ccccc1Nc1c(Cl)cccc1Cl [Diclofenac]
safety index (ratio of ulcerogenicity/efficacy) [1]: 4.3-9.9
histological study of the joints, first observation ([2]; 3 days after the beginning (time printed for present agent only)): inflammatory and destructive changes were observed
histological study of the joints, 7 days ([2]; 7 days): articulate surfaces had uneven outlines
histological study of the joints, 14 days ([2]; 14 days): surface of articulate cartilages was smoothed down
time until inflammatory process calmed down / destructive changes in articulate cartilages were reduced ([2]; diclofenac 8 mg/kg (most of the animals), present agent 250 mg/kg): 14 days
average content of hemoglobin in the erythrocyte [2, 6]: decreased
number of monocytes [2, 6]: not changed
number of erythrocytes and hemoglobin in the peripheral blood ([2]; diclofenac 8 mg/kg, present agent 250 mg/kg, intragastric, vs initial level): substantially reduced
number of granulocytes [2, 7]: increased
number of leukocytes [2, 7]: insignificantly reduced
level of thrombocytes ([2]; diclofenac 8 mg/kg, present agent 250 mg/kg, entire period of the study): decrease
hematocrit ([2]; diclofenac 8 mg/kg, present agent 250 mg/kg, whole period of observation): reduced
Degree of the anti-exudative effect A = [Ro − Rk]/Rk100% [3]: 85%
Volume of the peritoneal exudate ([3]; n = 10): 37 ± 2 µL
influence on the synthesis of immunoglobulins [4]: specific immunomodulating influence on the synthesis of immunoglobulins
influence on the volume of the inflammatory exudate in the abdominal cavity ([5]; compared with Boswellik 100 and 130 mg/kg, rats and mice): considerably weaker influence
Degree of the anti-exudative effect A = [Ro − Rk]/Rk100% ([5]; rats): 24%
Volume of the peritoneal exudate ([5]; rats, n = 10): 3350 ± 220 µL
